Data on two molecules can be found in US20250304610A1, “TREHALOSE-BASED SURFACTANTS” (priority 2022, published 2025).

The subject of data set [1] is antibody. The experiment in a line: Antibody aggregation assessed by DLS after freeze-drying and storage. In kind it is physicochemical. As to conditions: antibody 1 mg/mL, reconstituted with MilliQ water. The procedure:
500 uL of 1 mg/mL antibody formulations were placed in a vial prior to deep-freeze in liquid nitrogen. The frozen samples were placed directly in the freeze-dryer. After 24 hr, the lyophilized samples were stored in a fridge at 4° C. for 7 or 28 days. The sample were then reconstituted with addition of MilliQ® water before assessing their stability by DLS and cell binding assays.
The aggregation of antibody was assessed by dynamic light scattering (DLS) operating at 25° C. The measurements were done at different timepoints during storage at […] and right after nebulization.
The mean hydrodynamic diameter by intensities of the monomer was distributed at d=10 nm while aggregates was distributed at a d >10 nm.
The addition of 5.6 mM C16Tre1S and C8Tre1S trehalose surfactants as cryoprotectant was assessed on 1 mg/mL antibody formulations. The samples were first deep-frozen in liquid nitrogen before drying for 24 hr. The lyophilized samples were stored in a fridge for 0, 7 or 28 days before reconstitution with addition of MilliQ® water. The conformation and functionality of antibody after the process were assessed by DLS and cell binding assays respectively. The results were compared to antibody formulated in PBS only and formulated with standard cryoprotectants such as trehalose (5 wt % and 5.6 mM) and Tween 80 (5.6 mM).

The test system of data set [2] is SARS-CoV-2 spike-expressing HEK293 cells. In kind it is cell-based.

For `OC[C@H]1O[C@H](O[C@H]2O[C@H](CO)[C@@H](O)[C@H](O)[C@H]2O)[C@H](O)[C@@H](O)[C@@H]1O` [Trehalose], the “antibody aggregation after freeze-drying (DLS)” value is “aggregations were observed” in data set [1] (excipient 5.6 mM) and “Comparable results” in data set [1] (excipient 5 wt %). The “antibody binding to spike-expressing HEK293 cells after lyophilization (fluorescence signal)” value in data set [2] is “significant decrease of antibody binding”.

Turning to `CCCCCCCC/C=C\CCCCCCCC(=O)OCCOCC(OCCO)C1OCC(OCCO)C1OCCO` (stereo not drawn) [Tween 80], the “antibody aggregation after freeze-drying (DLS)” value in data set [1] (excipient 5.6 mM) is “Comparable results”. Further, in data set [2], the “antibody binding to Spike protein after nebulization of the reconstituted formulation” value is “at the same level as before nebulization” and the “antibody binding to spike-expressing HEK293 cells after lyophilization (fluorescence signal)” value is “Comparable results”.
